In patent publication US6599908B1, “Fused polycyclic 2-aminopyrimidine derivatives” (Celltech R & D Limited, priority 1996, dated 2003):

## COc1cc(Nc2ncc3c(n2)-c2ccccc2CCC3)cc(OC)c1OC [Example 6, N-(3,4,5-Trimethoxyphenyl)-6,7-dihydro-5H-benzo[6,7]cyclohepta[d]pyrimidine-2-amine]
  melting point: 201 to 202 °C
